Experimental data from PubChem BioAssay (NCI).
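96-well plates; 48 h exposure; 5 concentrations. Endpoints by linear interpolation between flanking doses. Not reached: highest tested concentration assigned. At the GI50, growth is halved. TGI is the concentration that stops growth completely.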

Columns and labels:
Assay in all cases: DTP human tumour cell line panel, 48 h
MOLT-4 leukemia = test system: MOLT-4 leukemia
SK-OV-3 ovarian = test system: SK-OV-3 ovarian
MCF7 breast = test system: MCF7 breast
NCI/ADR-RES ovarian = test system: NCI/ADR-RES ovarian
OVCAR-4 ovarian = test system: OVCAR-4 ovarian
DU-145 prostate = test system: DU-145 prostate
786-0 renal = test system: 786-0 renal
HT29 colon = test system: HT29 colon
A549 NSCLC = test system: A549 NSCLC
NCI-H226 lung = test system: NCI-H226 lung

| SMILES | TGI (MOLT-4 leukemia) | TGI (SK-OV-3 ovarian) | GI50 (MCF7 breast) | TGI (MCF7 breast) | GI50 (NCI/ADR-RES ovarian) | TGI (NCI/ADR-RES ovarian) | TGI (OVCAR-4 ovarian) | GI50 (DU-145 prostate) | TGI (DU-145 prostate) | GI50 (786-0 renal) | TGI (786-0 renal) | TGI (HT29 colon) | TGI (A549 NSCLC) | TGI (NCI-H226 lung) | GI50 (MOLT-4 leukemia) | GI50 (SK-OV-3 ovarian) | GI50 (OVCAR-4 ovarian) | GI50 (HT29 colon) | GI50 (A549 NSCLC) | GI50 (NCI-H226 lung) |
| --- | --- | --- | --- | --- | --- | --- | --- | --- | --- | --- | --- | --- | --- | --- | --- | --- | --- | --- | --- | --- |
| Cc1cc(O)c2c(c1)C(=O)c1cc(O)cc(O)c1C2=O | > 100 µM | > 91.9 µM | 27.7 µM | > 100 µM | 36.8 µM | > 100 µM | 98.8 µM | 46.2 µM | > 100 µM | 25.5 µM | 84.6 µM | > 100 µM | > 100 µM | > 70.9 µM | – | – | – | – | – | – |
| O=S(=O)(NC(=S)Nc1ccccc1)c1ccc(N2N=C3c4ccccc4CC3C2c2cccs2)cc1 (configuration not stated) | > 100 µM | > 100 µM | 3.7 µM | > 100 µM | 19.3 µM | 44.5 µM | > 100 µM | 17.8 µM | 41.5 µM | 19.7 µM | 40.4 µM | > 100 µM | > 100 µM | 55.4 µM | 17.5 µM | 49.5 µM | 69.8 µM | 36.2 µM | 15.7 µM | 27.2 µM |
| Nc1nc2c(c3ncccc13)C(c1cccc(Cl)c1)Cc1ncccc1-2 (configuration not stated) | 50.4 µM | 23.2 µM | 0.514 µM | 17.6 µM | 0.959 µM | 7.5 µM | 40.5 µM | 2.77 µM | 24.9 µM | 3.99 µM | 26.5 µM | 10.8 µM | > 100 µM | 43.2 µM | 2.43 µM | 2.69 µM | 5.14 µM | 0.805 µM | 3.08 µM | 19.6 µM |
| O=C(O)c1cc2ccccc2c(N=Nc2c([N+](=O)[O-])cc([N+](=O)[O-])cc2S(=O)(=O)O)c1O | > 100 µM | > 100 µM | – | – | – | > 100 µM | > 100 µM | – | – | – | > 100 µM | > 100 µM | > 100 µM | > 100 µM | – | – | – | – | – | – |
| Cn1ccc(=Nc2ccc(NC(=O)c3ccc(N=c4ccn(C)c5ccc([N+](=O)[O-])cc45)cc3)cc2)cc1 | > 100 µM | > 100 µM | 2.36 µM | > 100 µM | > 100 µM | > 100 µM | – | 4.43 µM | > 100 µM | 56.1 µM | > 100 µM | > 100 µM | > 100 µM | > 100 µM | > 100 µM | > 100 µM | – | 7.54 µM | 7.31 µM | 74.3 µM |
| COc1ccc2cc(C(=O)/C=C/c3cccc(Cl)c3Cl)ccc2c1 | > 100 µM | > 62.4 µM | 1.28 µM | > 100 µM | 12.7 µM | > 100 µM | > 100 µM | 9.57 µM | > 55.9 µM | 6.08 µM | > 41.5 µM | > 64.2 µM | > 100 µM | – | 27.5 µM | 24.7 µM | 44.6 µM | 7.33 µM | 10.9 µM | – |
| N/N=C1\c2ccccc2C2/C(=N\N)c3ccccc3C12 (configuration not stated) | > 100 µM | > 100 µM | – | – | – | – | > 100 µM | – | – | – | > 100 µM | > 100 µM | > 100 µM | – | – | – | – | – | – | – |
| CC1C=C(OC(=O)c2ccccc2)C(=O)C(n2cc(F)c(=O)n(C(=O)c3ccccc3)c2=O)O1 (configuration not stated) | 71.4 µM | > 100 µM | – | – | – | – | > 100 µM | – | – | – | > 100 µM | > 100 µM | > 100 µM | – | – | – | – | – | – | – |
| CCOc1ccccc1NC(=O)CCc1nnc2s/c(=C\CCc3ccccc3)c(=O)n12 | > 100 µM | > 100 µM | – | – | – | – | > 100 µM | – | – | – | > 100 µM | > 100 µM | > 100 µM | > 100 µM | – | – | – | – | – | – |
| CN(C)CCNC(=O)c1cccc2cc3ccccc3nc12 | 7.95 µM | 11 µM | 0.612 µM | 11.4 µM | 1.55 µM | 5.83 µM | 4.99 µM | 1.8 µM | 4.37 µM | 1.52 µM | 8.64 µM | 3.15 µM | – | 3.85 µM | 0.399 µM | 1.03 µM | 2.11 µM | 0.774 µM | – | 0.961 µM |
| CC1CCCC(C(O)CC2CC(=O)N(c3ccccc3)C(=O)C2)C1=O (configuration not stated) | > 100 µM | > 100 µM | – | – | – | – | > 100 µM | – | – | – | > 100 µM | > 100 µM | > 100 µM | > 100 µM | – | – | – | – | – | – |
| CCC(C(=O)[O-])C(=O)[O-].CCC(C(=O)[O-])C(=O)[O-].N.N.NCCCCCN.[Pt+4].[Pt+4] | > 100 µM | > 100 µM | – | – | – | – | > 100 µM | – | – | > 100 µM | > 100 µM | > 100 µM | > 100 µM | 94.7 µM | 84.3 µM | > 100 µM | > 100 µM | > 100 µM | > 100 µM | 23.4 µM |
| FC(F)(F)c1ccc(C=NC23CC4CC(CC(C4)C2)C3)cc1 | > 100 µM | > 100 µM | – | – | – | – | > 100 µM | – | – | – | > 100 µM | > 100 µM | > 100 µM | > 100 µM | – | – | – | – | – | – |
| C=CCNC1=C(C(=O)OCC)C(=O)CO1 | > 100 µM | – | – | – | – | – | > 100 µM | – | – | – | > 100 µM | > 100 µM | > 100 µM | > 100 µM | – | – | – | – | – | – |
| COc1ccc2nc(NCCCNCCO)c3sc4ccc(F)cc4c(=O)c3c2c1 | 3.97 µM | – | 1.79 µM | 3.53 µM | – | – | 3.43 µM | 1.6 µM | 3.04 µM | 1.38 µM | 2.82 µM | 3.23 µM | 3.64 µM | 3.49 µM | 1.85 µM | – | 1.76 µM | 1.58 µM | 1.6 µM | 1.74 µM |
| COC(=O)c1c2c(c(C)[n+]([O-])c1C)C(=O)C=C(NCc1cccc(OC)c1)C2=O | 3.54 µM | – | 0.258 µM | 0.826 µM | 0.441 µM | 3.15 µM | 0.993 µM | 1.06 µM | 2.29 µM | 1.88 µM | 4.85 µM | 1.54 µM | – | 4.48 µM | 1.09 µM | – | 0.246 µM | 0.37 µM | – | 1.72 µM |
| O=C(CC/C(C/C(=N/O)c1ccc(F)cc1)=N/O)N(Cc1ccccc1)Cc1ccccc1 | > 100 µM | – | – | – | – | – | > 100 µM | – | – | – | > 100 µM | > 100 µM | > 100 µM | > 100 µM | – | – | – | – | – | – |
